The text below walks through data of US20090325948A1, “INHIBITORS OF UNDECAPRENYL PYROPHOSPHATE SYNTHASE” (priority 2006, published 2009).

In the assay the target is T1, Streptococcus pneumonia UPPS (Streptococcus pneumoniae serotype 4, UniProt Q97SR4).
T1 construct: His-tag (N); made in house; this is inferred
T1 sequence (Q97SR4 1-252): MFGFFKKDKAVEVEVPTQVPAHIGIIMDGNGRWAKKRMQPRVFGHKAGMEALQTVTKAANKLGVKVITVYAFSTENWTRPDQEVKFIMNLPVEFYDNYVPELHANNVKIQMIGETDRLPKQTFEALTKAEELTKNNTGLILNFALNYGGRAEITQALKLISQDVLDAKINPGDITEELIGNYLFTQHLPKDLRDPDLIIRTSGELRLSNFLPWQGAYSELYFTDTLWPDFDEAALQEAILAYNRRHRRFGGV
The assay can be described thus: UPPS binding/inhibition assay (inorganic phosphate quantified with Biomol Green). It is filed as biochemical. Conditions: 20 min preincubation; FPP 3 μM, IPP 16 μM. The procedure: The ability of several of the compounds described herein to bind to UPPS was also tested as follows.
Streptococcus pneumonia UPPS was cloned into pET-15b, expressed and purified as an N-terminal His-tag fusion using affinity chromatography. The working stock of UPPS was prepared by mixing the purified enzyme with liposome made from E. coli total lipids extract (Avanti Polar Lipis, Inc., Alabaster, Ala.). The substrates FPP and IPP and inorganic pyrophosphatase were purchased from Sigma. Biomol Green reagent was from Biomol International (Plymouth Meeting, Pa.). All other chemicals were from Sigma at the highest grade.
For testing a compound, UPPS was first incubated with the compound at desired concentrations for 20 minutes in the UPPS reaction buffer that contained 100 mM Tris-HCl, pH 7.3, 50 mM KCl, 1 mM MgCl2, 0.01% Triton X-100, and 20 μg/mL BSA. The reaction was then initiated by the addition of a mixture of FPP, IPP, and E. Coli inorganic phosphatase made in the same UPPS reaction buffer. The final concentrations for FPP and IPP were 3 μM and 16 μM, respectively. The inorganic phosphate generated in the reactions was then quantified with Biomol Green reagent, which was then used to determine the rate of the reaction and the inhibitory activity of the compound.
For example, the results of the binding assay for several compounds are shown the table below: […]

By IC50 is commonly meant the midpoint of a concentration-inhibition curve. The low end stands for higher potency, the high end for lower potency. For the compound `O=C(Nc1cccc(Br)c1)c1c(O)c2c([nH]c1=O)CCCC2` [compound 93], the IC50 is more than 50 µM.

Take `COC(=O)N1CCc2[nH]c(=O)c(C(=O)Nc3ccc(N4CCCCC4)cc3)c(O)c2C1` [compound 129]: the half-inhibitory concentration (IC50) lay within 0.01 to 10 µM. For the compound `O=C(Nc1ccc(C(F)(F)F)cc1)C1=C(O)[C@H]2CCC[C@H]2NC1=O` [compound 40], the IC50 lay within 0.01 to 10 µM. Take `CC(C)(C)OC(=O)N1CCC2C(O)=C(C(=O)Nc3ccc(N4CCCC4)cc3)C(=O)NC2C1` (stereo not shown) [compound 54]: the half-maximal inhibitory concentration (IC50) is 0.01 to 10 µM. In the case of `O=C(NNC(=O)c1c(O)c2ccccc2[nH]c1=O)c1ccccc1Cl` [compound 131] it was 0.01 to 10 µM; in that of `O=C(Nc1ccc(-c2ccccc2)cc1)c1c(O)c2cc(Br)ccc2[nH]c1=O` [compound 159], 0.01 to 10 µM; in that of `O=C(Nc1ccc(N2CCCC2)cc1)C1=C(O)C2CCNCC2NC1=O` (stereo not shown) [compound 61], 0.01 to 10 µM. In turn, `O=C(Nc1ccc(N2CCCCC2)cc1)C1=C(O)C2CCNCC2NC1=O` (stereo not shown) [compound 49] came in with an IC50 of 0.01 to 10 µM.

Compound `O=C(Nc1ccc(N2CCCCC2)cc1)C1=C(O)[C@H]2CNCC[C@H]2NC1=O` [compound 47] had an IC50 of 0.01 to 10 µM.

As to `O=C(Nc1ccc(N2CCCCC2)cc1)C1=C(O)C2CCNCC2NC1=O` (stereo not shown) [compound 32], the 50% inhibitory concentration (IC50) lay in the range of 0.01 to 10 µM.

As to `O=C(Nc1cccc(Cl)c1Cl)c1c(O)c2c([nH]c1=O)CCCC2` [compound 100], the IC50 is more than 50 µM. In the case of `COCCOC(=O)N1CC[C@@H]2NC(=O)C(C(=O)Nc3ccc(N4CCCCC4)cc3)=C(O)[C@H]2C1` [compound 72] it was 0.01 to 10 µM. The figure for `CC(C)(C)OC(=O)N1CCC2NC(=O)C(C(=O)Nc3ccc(C4CCCCC4)cc3)=C(O)C2C1` (stereo not shown) [compound 29] is 0.01 to 10 µM. In the case of `O=C(Nc1ccc(C2CCCCC2)cc1)C1=C(O)[C@H]2CCC[C@H]2NC1=O` [compound 45] it was 0.01 to 10 µM; in that of `O=C(NCc1ccccc1)c1c(O)c2c([nH]c1=O)CCCC2` [compound 84], 0.01 to 10 µM. With `O=C(Nc1ccc(N2CCCCC2)cc1)C1=C(O)C2CNCCC2NC1=O` (stereo not shown) [compound 37], the half-inhibitory concentration (IC50) lay within 0.01 to 10 µM.

As for `CC(C)CCNC(=O)c1c(O)c2c([nH]c1=O)CCCC2` [compound 87], the IC50 was in the range of 0.01 to 10 µM. In the case of `O=C(NCCN1CCOCC1)c1c(O)c2ccccc2[nH]c1=O` [compound 154] it was 0.01 to 10 µM; in that of `O=C(Nc1ccc(C2CCCCC2)cc1)c1c(O)c2cscc2[nH]c1=O` [compound 4], 0.01 to 10 µM. In turn, `O=C(Nc1ccc(C2CCCCC2)cc1)C1=C(O)[C@H]2CNCC[C@@H]2NC1=O` [compound 51] displayed an IC50 of 0.01 to 10 µM. The figure for `O=C(Nc1ccc(N2CCN(CCO)CC2)cc1)C1=C(O)C2CNCCC2NC1=O` (stereo not shown) [compound 64] is more than 50 µM; for `C#CCOC(=O)N1CC[C@@H]2NC(=O)C(C(=O)Nc3ccc(N4CCCCC4)cc3)=C(O)[C@H]2C1` [compound 73] it is more than 50 µM. The figure for `CC(C)(C)C1CCC(NC(=O)c2c(O)c3cscc3[nH]c2=O)CC1` (stereo not shown) [compound 11] is 0.01 to 10 µM; for `CC(C)(C)C(=O)N1CCc2[nH]c(=O)c(C(=O)Nc3ccc(N4CCCCC4)cc3)c(O)c2C1` [compound 128] it is 0.01 to 10 µM; for `CC(=O)N1CCc2[nH]c(=O)c(C(=O)Nc3ccc(N4CCCCC4)cc3)c(O)c2C1` [compound 126] it is 0.01 to 10 µM. The compound `O=C(Nc1ccc(-c2ccccc2)cc1)C1=C(O)C2CNCCC2NC1=O` (stereo not shown) [compound 26] displayed an IC50 of 0.01 to 10 µM. Compound `CCN1CC[C@@H]2NC(=O)C(C(=O)Nc3ccc(N4CCCCC4)cc3)=C(O)[C@H]2C1` [compound 69] came in with a half-inhibitory concentration (IC50) of 0.01 to 10 µM. The figure for `CNC(=O)c1ccccc1NC(=O)c1c(O)c2c([nH]c1=O)CCCC2` [compound 98] is 0.01 to 10 µM; for `O=C(Nc1ccccc1Oc1ccccc1)c1c(O)c2ccccc2[nH]c1=O` [compound 162] it is 0.01 to 10 µM; for `CCN1C[C@@H]2NC(=O)C(C(=O)Nc3ccc(C4CCCCC4)cc3)=C(O)[C@H]2C1` [compound 20] it is 0.01 to 10 µM. In the case of `CCCOC(=O)c1ccc(NC(=O)c2c(O)c3c([nH]c2=O)CCCC3)cc1` [compound 124] it was 0.01 to 10 µM. `CCCN(CC)c1ccc(NC(=O)c2c(O)c3ccc(N4CCN(C)CC4)cc3[nH]c2=O)cc1` [compound 180]: the 50% inhibitory concentration (IC50) lay within 0.01 to 10 µM. The figure for `CC(C)(C)OC(=O)N1CCC2NC(=O)C(C(=O)Nc3ccc(N4CCN(CCO)CC4)cc3)=C(O)C2C1` (stereo not shown) [compound 59] is 0.01 to 10 µM; for `O=C(Nc1ccc(Oc2ccccc2)cc1)c1c(O)c2cscc2[nH]c1=O` [compound 2] it is 0.01 to 10 µM; for `O=C(Nc1ccc(N2CCCCC2)cc1)c1c(O)c2cc(N3CCNCC3)ccc2[nH]c1=O` [compound 179] it is 0.01 to 10 µM. In the case of `COc1cccc2[nH]c(=O)c(C(=O)Nc3ccc(Oc4ccccc4)cc3)c(O)c12` [compound 144] it was more than 50 µM; in that of `COc1ccc(-c2nc(NC(=O)c3c(O)c4ccccc4n(C)c3=O)nn2-c2ccc(OC)cc2)cc1` [compound 173], 0.01 to 10 µM. In the case of `CC(C)(C)OC(=O)N1CCC2NC(=O)C(C(=O)Nc3ccc(Oc4ccccc4)cc3)=C(O)C2C1` (stereo not shown) [compound 34] it was 0.01 to 10 µM; in that of `Cn1c(=O)c(C(=O)Nc2ccc(OC(F)(F)F)cc2)c(O)c2ccccc21` [compound 175], 0.01 to 10 µM; in that of `O=C(Nc1ccc(N2CCCCC2)cc1)c1c(O)c2c([nH]c1=O)CNCC2` [compound 120], 0.01 to 10 µM. In turn, `O=C(Nc1ccc(Oc2ccccc2)cc1)c1c(O)c2ccccc2[nH]c1=O` [compound 142] gave a concentration for half-maximal inhibition (IC50) of 0.01 to 10 µM. For `O=C(Nc1nc2ccc(Br)cc2s1)c1c(O)c2c([nH]c1=O)CCCC2` [compound 104], the IC50 lay within 0.01 to 10 µM.

`O=C(Nc1ccc(C(F)(F)F)cc1)c1c(O)c2cc(-c3ccccc3)sc2[nH]c1=O` [compound 111]: the IC50 was 10 to 50 µM. The figure for `O=C(Nc1ccc(C(F)(F)F)nc1)c1c(O)c2ccccc2[nH]c1=O` [compound 157] is 0.01 to 10 µM; for `CCCN(CC)c1ccc(NC(=O)c2c(O)c3ccc(N4CCNCC4)cc3[nH]c2=O)cc1` [compound 178] it is 0.01 to 10 µM; for `O=C(Nc1ccc(C2CCCCC2)cc1)c1c(O)c2cc(-c3ccccc3)sc2[nH]c1=O` [compound 107] it is 0.01 to 10 µM. On to `O=C(Nc1ccc(Oc2ccccc2)cc1)C1=C(O)C2CNCCC2NC1=O` (stereo not shown) [compound 28], for which the IC50 was in the range of 0.01 to 10 µM. The figure for `O=C(Nc1ccc(N2CCCCC2)cc1)C1=C(O)[C@H]2CNCC[C@@H]2NC1=O` [compound 46] is 0.01 to 10 µM; for `CCCCCCOc1ccc(NC(=O)c2c(O)c3cc(-c4ccccc4)sc3[nH]c2=O)cc1` [compound 110] it is 0.01 to 10 µM. Regarding `O=C(NC1CCCCCC1)c1c(O)c2c([nH]c1=O)CCCC2` [compound 92], the IC50 was in the range of 0.01 to 10 µM. For the compound `O=C(Nc1ccc(-c2ccccc2)cc1)C1=C(O)[C@H]2CNC[C@@H]2NC1=O` [compound 17], the IC50 is 0.01 to 10 µM. For `O=C(NC1CCCCC1)c1c(O)c2ccccc2[nH]c1=O` [compound 137], the IC50 is 0.01 to 10 µM. Turning to `COc1ccc(-c2nc(NC(=O)c3c(O)c4cscc4[nH]c3=O)nn2-c2ccc(OC)cc2)cc1` [compound 10], the IC50 was 0.01 to 10 µM. In the case of `Cn1c(=O)c(C(=O)Nc2ccc(Oc3ccccc3)cc2)c(O)c2ccccc21` [compound 168] it was 0.01 to 10 µM. Compound `O=C(Nc1ccc(N2CCCCC2)cc1)c1c(O)c2c([nH]c1=O)CCNC2` [compound 121] gave an IC50 of 0.01 to 10 µM.
